Structures are written as SMILES.

This data set can be described thus: Human HepG2 cell viability assay in 384 well format. More on the design: dose 125 nL, time 70.5 hour; cytotoxicity at 70.5 h: concentration not given beside the values. The settings on record: HepG2 cells, read-out: Inhibition. The format is toxicity, cell-based.

With `Nc1cc2c(nn1)CCN(C(=O)CCC1CCCCC1)C2`, the cytotoxicity at 70.5 h was -11.1%.

For `Nc1cc2c(nn1)CCN(C(=O)CCCC1CCCCC1)C2`, the cytotoxicity at 70.5 h is -13.1%.

With `CC(=O)NCCNC(=O)CN1CCCCC1Cn1cncn1` (configuration not stated), the cytotoxicity at 70.5 h was -8.39%.

On to `c1cn(-c2ccc(CN3CCOC(Cn4cncn4)C3)cc2)cn1` (configuration not stated), for which the cytotoxicity at 70.5 h was -7.67%. For the compound `Nc1cc2c(nn1)CCN(C(=O)CC1CCCCC1)C2`, the cytotoxicity at 70.5 h was -8.85%.

`COc1c(C)cnc(CN2CCOC(Cn3cc(C)cn3)C2)c1C` (configuration not stated): the cytotoxicity at 70.5 h stood at 0.484%.

For the compound `CCOc1ccnc(N2CCCN(C(=O)c3cc[nH]c3C)CC2)n1`, the cytotoxicity at 70.5 h amounted to 17.6%. The figure for `Cn1cc(C2CCCN2Cc2cscn2)cn1` (configuration not stated) is -2.56%.

As for `CS(=O)(=O)NCCN1CCCC1c1ccc(Cl)cc1` (configuration not stated), the cytotoxicity at 70.5 h amounted to 12%. With `Cc1nn(C)c(N2CCOCC2)c1CNC1COc2ccccc2C1` (configuration not stated), the cytotoxicity at 70.5 h amounted to 27.5%. The figure for `CN(C)S(=O)(=O)CCCN1CCCC1c1noc(C2CC2)n1` (configuration not stated) is 22.8%; for `Clc1snnc1CN1CCCC1Cn1cncn1` (configuration not stated) it is 53.6%. With `COc1cc(C(=O)Nc2nc(C)no2)ccc1OC1CCCC1`, the cytotoxicity at 70.5 h was -4.68%. Regarding `Cc1nn(C)c(N2CCOCC2)c1CNC1CCC(O)CC1` (configuration not stated), the cytotoxicity at 70.5 h is -1.76%. On to `Cc1nn(C)c(N2CCOCC2)c1CNC1CCN(C2CC2)CC1`, for which the cytotoxicity at 70.5 h is -6.05%. Consider `CC(NC(=O)NCCCc1n[nH]c(N)c1C#N)c1ccc(F)c(F)c1` (configuration not stated), for which the cytotoxicity at 70.5 h is -2.56%. In the case of `CCOc1ncccc1NC(=O)NCC(C)O` (configuration not stated), the cytotoxicity at 70.5 h was -3.67%.

Consider `COc1cc(C(=O)Nc2nc(C)no2)cc(OC)c1Br`, for which the cytotoxicity at 70.5 h was 27.4%. Regarding `CCn1cc(NC(=O)NCC(O)COc2ccccc2)cn1` (configuration not stated), the cytotoxicity at 70.5 h was -7.02%. In the case of `Cc1nn(C)c(N2CCOCC2)c1CNC1CCc2ccccc21` (configuration not stated), the cytotoxicity at 70.5 h was -7.04%. The same measure for `CCCNC(=O)C1CCN(Cc2csc(CC)n2)CC1`: 0.277%. The figure for `Cc1ccc(C(=O)N(C2CC2)C2CC(=O)NC2=O)cc1F` (configuration not stated) is -3.53%; for `CCN1CCN(C2CCN(Cc3nc(C4CC4)no3)CC2)C1=O` it is -5.25%. The same measure for `CCCNC(=O)C1CCN(Cc2csc(C(C)C)n2)CC1`: 16.4%.

On to `O=C1CC(N(C(=O)c2ccc(Cl)c(Cl)c2)C2CC2)C(=O)N1` (configuration not stated), for which the cytotoxicity at 70.5 h is -4.14%. With `Cc1ccc(-c2nc(CN3CCOC(Cn4cccn4)C3)no2)cc1` (configuration not stated), the cytotoxicity at 70.5 h is -4.16%. For the compound `CCc1nc(CN(C(C)=O)C2CCN(Cc3csc(C)n3)C2)no1` (configuration not stated), the cytotoxicity at 70.5 h is -2.47%. The figure for `Cc1cc(C(=O)NS(C)(=O)=O)c(C)n1-c1ccccc1` is -13.1%; for `O=C(CCN1C(=O)CCC1=O)NCC1(c2c(F)cccc2F)CCCC1` it is -11.2%. The figure for `COc1cccc(-n2c(C)cc(C(=O)NCCCC(N)=O)c2C)c1` is -10.3%.

Regarding `COc1cccc(-n2c(C)cc(C(=O)NC(C)(C)C(N)=O)c2C)c1`, the cytotoxicity at 70.5 h was -15.2%. Take `COc1ccc(C2=CCN(C(=O)CN(C)Cc3ccco3)CC2)cc1`: the cytotoxicity at 70.5 h is -11.2%.

As for `Cc1cc(CN2CCN(CC(O)c3cccc(F)c3)CC2)no1` (configuration not stated), the cytotoxicity at 70.5 h was -4.25%. The same measure for `Cc1cc(CN2CCN(CC(O)c3ccc(Cl)cc3)CC2)no1` (configuration not stated): -11.9%; for `Cc1cnn(CC2CN(c3nc4ccccc4o3)CCO2)c1` (configuration not stated): 16.4%. `Cc1cc(NC(=O)c2ccc(-n3ncc(C#N)c3N)cc2)n(C)n1`: the cytotoxicity at 70.5 h was -8.66%. Regarding `Cc1cccnc1NC(=O)c1ccc(-n2ncc(C#N)c2N)cc1`, the cytotoxicity at 70.5 h was -4.45%. As for `COc1cccc2cc(CNC(=O)N3CCOC(C)(C)C3)oc12`, the cytotoxicity at 70.5 h was 14%.

Take `c1ccc(OCCNC2CCCN(Cc3noc(C4CC4)n3)C2)cc1` (configuration not stated): the cytotoxicity at 70.5 h was -7.17%. On to `Cc1nc(C)n(CC2CCCCN2CCOc2ccc(C#N)cc2)n1` (configuration not stated), for which the cytotoxicity at 70.5 h was -9.43%. For the compound `Cc1cc(C)n(C2CCCN(C(=O)CCOc3ccccc3F)C2)n1` (configuration not stated), the cytotoxicity at 70.5 h is -9.17%. On to `COc1cccc2cc(CNC(=O)N3CCS(=O)(=O)CC3)oc12`, for which the cytotoxicity at 70.5 h came to 12.1%. The figure for `COc1cccc2cc(CNC(=O)N3CCC(N4CCCC4)C3)oc12` (configuration not stated) is -4.76%. For the compound `CC(=O)c1cccc(OCC(=O)NS(=O)(=O)c2cccs2)c1`, the cytotoxicity at 70.5 h is -6.58%. Consider `CCc1n[nH]c(C2CN(C(=O)c3cc4c(s3)CCC4)CCO2)n1` (configuration not stated), for which the cytotoxicity at 70.5 h was -4.28%. The same measure for `Brc1cccc(-c2nnc(CNCCn3cccn3)o2)c1`: -10.8%; for `CC(NC(=O)NCCn1ccnc1)c1ccc2c(c1)OCCO2` (configuration not stated): -14.3%. In the case of `Brc1ccccc1-c1nnc(CNCCn2cccn2)o1`, the cytotoxicity at 70.5 h was 12.2%. For the compound `Clc1cccc(Cl)c1-c1nnc(CNCCn2cccn2)o1`, the cytotoxicity at 70.5 h was -4.1%.

As to `Cc1ccccc1C1(CNC(=O)CCN2C(=O)CCC2=O)CC1`, the cytotoxicity at 70.5 h was -12.8%. The same measure for `CN1CCOC(CNCc2coc(-c3cccc(Cl)c3)n2)C1` (configuration not stated): -0.236%; for `Cc1ccc(C(CNC(=O)c2c(C)noc2C(C)C)N(C)C)cc1` (configuration not stated): -4.44%; for `CCN1CCN(C(=O)c2cnc3c(cnn3C3CCCC3)c2)CC1`: -6.55%. For the compound `CN1CCOC(CNCc2cccc(OC(F)(F)F)c2)C1` (configuration not stated), the cytotoxicity at 70.5 h was -11.5%. As to `CC1CN(C)CCN1C(=O)c1cnc2c(cnn2C2CCCC2)c1` (configuration not stated), the cytotoxicity at 70.5 h is -2.54%. The figure for `Cc1cnn(CC2CCCN2C(=O)c2sccc2-n2cnnn2)c1` (configuration not stated) is -4.41%. The same measure for `O=C(CCc1ccccn1)N1CCCC(n2cncn2)C1` (configuration not stated): -13.6%; for `Cc1noc(C)c1C(=O)NCC(c1ccsc1)N(C)C` (configuration not stated): -8.5%. Turning to `COc1ccc(NC(=O)C2CC(=O)N(C)C2)cn1` (configuration not stated), the cytotoxicity at 70.5 h is -5.38%. Regarding `Cc1cc(NC(=O)NCC(C(C)C)N2CCOCC2)n(C)n1` (configuration not stated), the cytotoxicity at 70.5 h is -6.55%. Regarding `Cc1cc(C(=O)NCC(c2ccsc2)N(C)C)no1` (configuration not stated), the cytotoxicity at 70.5 h is -5.66%.

Take `CCOc1ccc(C#N)cc1NCC(=O)NC(=O)NC`: the cytotoxicity at 70.5 h is -3.9%. The same measure for `Clc1ccc2cccnc2c1CN1CCCC(Cn2cncn2)C1` (configuration not stated): -14.3%; for `CCCOc1cccc(CNC(=O)CN2CCN(C)CC2C)c1` (configuration not stated): -13.5%. The same measure for `CC(C)c1nc(C2CCCN2C(=O)c2cnc[nH]2)no1` (configuration not stated): 21.4%; for `CNc1nc(CNC(=O)Nc2cccc(-c3nnco3)c2)cs1`: -18.7%. On to `CCOc1ccc(NC(=O)NCc2csc(NC)n2)cc1C`, for which the cytotoxicity at 70.5 h is -5.86%. As for `CN(CCC#N)C(=O)CN1CCCC1c1ccsc1` (configuration not stated), the cytotoxicity at 70.5 h was 22.4%. As for `N#CCCN(C(=O)CN1CCCC1c1ccsc1)c1ccccc1F` (configuration not stated), the cytotoxicity at 70.5 h was -14%. The same measure for `Cc1ccc(CC(=O)N2CCCC(c3cc(C)[nH]n3)C2)cn1` (configuration not stated): -7.57%; for `OCCn1cc(CN2CCN(CCOc3ccccc3F)CC2)cn1`: 16.6%; for `O=C(CN1CCOC(Cn2cccn2)C1)NCCc1ccc(F)cc1` (configuration not stated): -13.9%.

Consider `CCc1nc(CN2CCCN(C(=O)c3cnc[nH]3)CC2)cs1`, for which the cytotoxicity at 70.5 h is -14.3%. As for `Cc1ccc(CC(=O)N2CCCC(c3nc(C)cs3)C2)cn1` (configuration not stated), the cytotoxicity at 70.5 h was -17.4%. In the case of `CCN(CC)Cc1ccc(C(=O)N2CCCCC2Cn2cccn2)o1` (configuration not stated), the cytotoxicity at 70.5 h is -13.1%. For the compound `CC(=O)N(Cc1ncc(C(C)C)o1)C1CCN(Cc2nccn2C)C1` (configuration not stated), the cytotoxicity at 70.5 h is -0.826%.

For `CC(=O)N(Cc1ncc(C(C)C)o1)C1CCN(CCn2cccn2)C1` (configuration not stated), the cytotoxicity at 70.5 h stood at 4.58%. As to `CC(C)(C)c1nnc(CN2CCCC2c2noc(C3CC3)n2)o1` (configuration not stated), the cytotoxicity at 70.5 h is -8.8%.

Take `Cc1ncc2c(n1)CN(Cc1nnc(Cc3ccccc3)o1)CC2`: the cytotoxicity at 70.5 h was -3.37%. Regarding `c1cnn(CC2CCCN2c2ncnc3ccsc23)c1` (configuration not stated), the cytotoxicity at 70.5 h came out at 10.7%. On to `Cc1ccc(CNC(c2ccccc2)c2nccn2C)cc1C` (configuration not stated), for which the cytotoxicity at 70.5 h is -7.63%.

Regarding `COc1ccc(-n2ccc(C(=O)N3CCC(C(N)=O)C3)n2)cc1` (configuration not stated), the cytotoxicity at 70.5 h stood at 23.5%. Take `COc1c(CNCCNC(=O)c2ccco2)c(C)nn1C`: the cytotoxicity at 70.5 h is -10.7%. The same measure for `CNC(=O)C1CCN(C(=O)CCn2cccn2)CC1`: 26.7%; for `Cc1cc(C)n(CC2CCCN2C(=O)c2cccc3[nH]ncc23)n1` (configuration not stated): -8.53%. Consider `CC1CCCN(Cc2csc(-c3ncccn3)n2)CC1` (configuration not stated), for which the cytotoxicity at 70.5 h worked out at 9.27%. The same measure for `Nc1nc(CN2CCOC(Cn3cncn3)C2)nc2ccccc12` (configuration not stated): -3.11%; for `Cc1nc(C)n(C2CCCN(C(=O)c3ccc4c(c3)COC4)C2)n1` (configuration not stated): 0.389%; for `Cc1nc(CN2CCCC(N(C)CCc3ccncc3)C2)no1` (configuration not stated): 17.8%. For the compound `CC(C)=CCN(C)C1CCCN(Cc2noc(C)n2)C1` (configuration not stated), the cytotoxicity at 70.5 h turned out to be 21.1%. As for `Cc1ccc(-c2cc(CNC(=O)N3CCOC(C)C3)on2)cc1` (configuration not stated), the cytotoxicity at 70.5 h was -6.72%. As for `CC(=O)NC1CCCN(C(=O)Nc2cnc3c(cnn3C(C)C)c2)C1` (configuration not stated), the cytotoxicity at 70.5 h is -2.01%.

Consider `O=C(NC1CCS(=O)(=O)C1)N1CCN(c2cnccn2)CC1` (configuration not stated), for which the cytotoxicity at 70.5 h is -7.1%. As to `COc1cc(CNCc2ccc(C(C)O)cc2)cc2c1OCO2` (configuration not stated), the cytotoxicity at 70.5 h worked out at 44.3%.

As for `O=C(C1CCS(=O)(=O)C1)N1CCN(c2cnccn2)CC1` (configuration not stated), the cytotoxicity at 70.5 h was 13%. Turning to `O=C(CCN1C(=O)CCC1=O)Nc1cnn(-c2ccccc2Cl)c1`, the cytotoxicity at 70.5 h worked out at 10%. Consider `O=C(c1cc2c(s1)CCC2)N1CCCCC1Cn1cccn1` (configuration not stated), for which the cytotoxicity at 70.5 h was -3.46%. Consider `CCc1nc(C2CCCN(C(=O)c3cccc4cn[nH]c34)C2)no1` (configuration not stated), for which the cytotoxicity at 70.5 h came out at 3.52%. For the compound `COc1c(C2CCCN2Cc2cc(C)no2)c(C)nn1C` (configuration not stated), the cytotoxicity at 70.5 h was -9.4%.

Turning to `COc1c(C2CCCN2CC(=O)Nc2cc(C)no2)c(C)nn1C` (configuration not stated), the cytotoxicity at 70.5 h was -10.7%. Turning to `Cc1nc(C2CCCN2CC(=O)NCCc2ccsc2)no1` (configuration not stated), the cytotoxicity at 70.5 h is -2.7%.

Turning to `Cc1ccc2c(c1)CCC2NCc1c(C)nn(C)c1N1CCOCC1` (configuration not stated), the cytotoxicity at 70.5 h is -1.48%.

The record behind these values is ChEMBL document CHEMBL3507680, “University of Dundee, Gates Library screen for HepG2 cell viability”.
